Experimental findings from PubChem BioAssay (NCI) are described below.

Common to all, as to experiment: NCI tumour cell line growth inhibition, 48 h
The test system of assay [1] is CAKI-1 renal.
The subject of assay [2] is SF-539 CNS.
Assay [3] relates to MDA-MB-435.
In assay [4] the test system is OVCAR-4 ovarian.
Assay [5] has as its system K-562 leukemia.
Assay [6] has as its system BT-549 breast.
Assay [7] has as its system HCT-116 colon.
For assay [8], the system named is MALME-3M melanoma.
Assay [9] has as its system TK-10 renal.
Assay [10] deals with HCT-15 colon.

The structures appear in SMILES notation.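 Each compound was tested at five concentrations against cells in 96-well plates for 48 hours. GI50 is the concentration that inhibits growth by half. TGI: total growth inhibition.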

Turning to `CCCCCCCCCCCCCCCCCCNC(=O)[C@H]1CSC(c2ccc(F)c(OC)c2)N1` (stereo partly drawn), the GI50 was 0.846 µM in assay [1]; 1.77 µM in [2]; 0.518 µM in assay [3]; 1.38 µM in assay [4]; 0.774 µM in assay [5]; 0.974 µM in assay [6]. Besides, the GI50 in assay [7] is 0.835 µM; in assay [8], 0.951 µM. The TGI in assay [1] came to 1.58 µM; in [2], 6.26 µM; in assay [3], 1.2 µM; in assay [4], 3.62 µM; in assay [5], 2.45 µM; in [6] it was 1.85 µM. The values for the TGI in assay [7] and in assay [8] were 1.64 µM and 1.82 µM, respectively.

`Cc1ccc(S(=O)c2ccc([N+](=O)[O-])c3nonc23)cc1` (stereo not drawn): the GI50 in assay [9] was 2.53 µM; in assay [1], 3.12 µM; in [2] it was 19 µM; in assay [3] it was 10.2 µM; in [4], 3.08 µM; in [5], 3.02 µM. Besides, the GI50 is 10.1 µM in assay [6], 1.82 µM in assay [7] and 2.23 µM in [8]. The TGI in assay [9] was found to be 5.51 µM; in assay [1], 11.3 µM; in [2] it was 39.3 µM; in assay [3], 26 µM; in [4] it was 9.24 µM; in assay [5] it was 9.18 µM. Further, the TGI in [6] was 21.7 µM; in assay [7] it was 3.39 µM; in assay [8], 5.12 µM.

As to `COc1ccc(-c2nc(/C=N/Nc3cc(C)nc4ccc(Br)cc34)c(C)o2)cc1`, the GI50 in [9] is 1.97 µM; in [1], 1.62 µM; in [2], 1.83 µM; in [3], 1.68 µM; in assay [10], 0.902 µM; in assay [4], 1.72 µM. The GI50 in assay [6] is 1.67 µM; in [7], 1.84 µM; in [8], 1.98 µM. The TGI in assay [9] worked out at 3.45 µM; in [1] it was 2.98 µM; in assay [2] it was 3.3 µM; in [3], 3.1 µM; in assay [10] it was 2.33 µM; in assay [4], 3.31 µM. Moreover, the results for the TGI in assay [6], in assay [7] and in assay [8] were 3.11 µM, 3.36 µM and 3.67 µM, respectively.

Turning to `O=C(O)C(Cc1c[nH]c2ccccc12)N1C(=O)c2ccccc2C1=O` (stereo not drawn), the TGI in [9], in assay [1], in assay [2], in assay [3], in assay [10] and in assay [4] was above 100 µM in each case. Also, the TGI in [6], in assay [7] and in [8] was above 100 µM in each case.

As to `C/C(=N\O)[C@H]1CC[C@@]2(C)[C@@H]3CC[C@H]4C(C)(C)/C(=N/O)CC[C@@]45CC35CC[C@]12C` (stereo partly drawn), the GI50 in assay [9] was 8.17 µM; in assay [2], 3.14 µM; in assay [10], 3.75 µM; in assay [5] it was 3.42 µM; in [6], 2.65 µM; in assay [7], 2.45 µM. Moreover, the TGI in [9] was above 16.7 µM; in assay [2] it was 6.72 µM; in assay [10], 10.5 µM; in assay [5], above 16.7 µM; in assay [6], 9.59 µM; in [7], 5.77 µM.

As for `CC(C)(C)OC(=O)n1c(Cl)c(C(=O)N=C=S)c2ccccc21`, the GI50 in [9] is 27.3 µM; in [1], 34.6 µM; in [2], 23 µM; in [3] it was 80.8 µM; in assay [10] it was 30 µM; in assay [4], above 100 µM. For the same compound, the GI50 was 47 µM in assay [5], 30.9 µM in assay [6] and 55.7 µM in [7]. The TGI in assay [9] was above 100 µM; in assay [1], 92 µM; in assay [2], 55.1 µM; in assay [3], above 100 µM; in [10] it was above 100 µM; in [4], above 100 µM. In addition, the results for the TGI in assay [5], in assay [6] and in assay [7] were above 100 µM, 91.7 µM and above 100 µM, respectively.

For `CNc1ccc(N=Nc2cccc3ncccc23)cc1`, the GI50 in [9] was above 100 µM; in assay [1], 6 µM; in assay [2], 63.8 µM; in assay [3], 19.7 µM; in assay [10] it was 16.1 µM; in assay [5], 19.3 µM. Further, the GI50 in assay [6] was 24.4 µM; in [8], above 58.4 µM. The TGI in assay [9], in [1], in assay [2], in assay [3], in assay [10] and in assay [5] was above 100 µM each time. Also, the TGI in assay [6] and in assay [8] was above 100 µM throughout.

On to `Cc1ccc(-c2cc(C(Cl)Cl)on2)cc1`, for which the GI50 in [9] was 54.9 µM; in assay [1], 43.8 µM; in assay [2] it was above 100 µM; in [3], 62.9 µM; in assay [10], 42.4 µM; in [4] it was 77.6 µM. Moreover, the figures for the GI50 in [6], in assay [7] and in [8] were above 100 µM, 36.1 µM and above 100 µM, respectively. Also, the TGI in [9], in [1], in [2], in [3], in assay [10] and in assay [4] was above 100 µM in each case. For the same compound, the TGI in assay [6], in assay [7] and in assay [8] was above 100 µM in each case.

`COc1ccc(-c2conc2-c2ccccc2)cc1`: the GI50 was 15.3 µM in [9]; 0.246 µM in assay [1]; 0.272 µM in assay [2]; 0.099 µM in assay [10]; 2.35 µM in assay [4]; 0.0603 µM in assay [5]. For the same compound, the GI50 is 0.94 µM in assay [6], 0.318 µM in assay [7] and 4.95 µM in [8]. The TGI in [9] is above 100 µM; in [1], above 100 µM; in assay [2] it was 3.87 µM; in assay [10], above 100 µM; in assay [4], above 100 µM; in assay [5] it was above 100 µM. For the same compound, the TGI was 12.8 µM in [6], above 100 µM in assay [7] and above 80.1 µM in assay [8].

Consider `N#CC1=C(N)Oc2c(sc3c(Br)cccc23)C1c1ccc(F)cc1` (stereo not drawn), for which the GI50 in assay [9] is 0.436 µM; in [1] it was 0.437 µM; in assay [3], 0.0691 µM; in [10], 0.39 µM; in assay [4], 0.65 µM; in [5], 0.275 µM. In addition, the values for the GI50 in assay [6] and in assay [7] were 1.01 µM and 0.409 µM, respectively. In addition, the TGI in assay [9] was 15.8 µM; in [1] it was 31.9 µM; in assay [3] it was 11.2 µM; in assay [10], 11.4 µM; in [4], 23.4 µM; in assay [5], 23.9 µM. In addition, the TGI in assay [6] came out at 19.3 µM; in assay [7], 12.3 µM.

On to `COc1ccc(C2NC(=S)NC3=C2COc2ccc(F)cc23)cc1OC` (stereo not drawn), for which the GI50 in assay [9] is 31.2 µM; in assay [1], 15.8 µM; in assay [2], 28.3 µM; in assay [3] it was 12.3 µM; in assay [10], 18.6 µM; in assay [4] it was 23 µM. For the same compound, the GI50 in assay [5] was 15.9 µM; in assay [6], 27.9 µM; in assay [7], 16.6 µM. For the same compound, the TGI in assay [9] is above 100 µM; in assay [1], 65 µM; in [2], 67.4 µM; in [3], 38.5 µM; in [10], 87 µM; in assay [4] it was above 100 µM. Besides, the results for the TGI in assay [5], in assay [6] and in [7] were above 100 µM, 83.3 µM and 57.1 µM, respectively.

As to `Cc1cc(C(=O)Nc2cc(Nc3ncccc3-c3ncnc4nc[nH]c34)ccc2F)cc(C(C)(C)C#N)c1`, the GI50 in [9] is 4.07 µM; in [1], 0.951 µM; in assay [2], 1.19 µM; in assay [3], 0.182 µM; in assay [10], 2.97 µM; in [4], 5.33 µM. The GI50 in assay [5] was 0.306 µM; in assay [6], 2.95 µM; in assay [7], 0.151 µM. Also, the TGI in assay [9] was above 100 µM; in assay [1], above 100 µM; in [2], above 63.8 µM; in assay [3], above 100 µM; in assay [10], above 100 µM; in assay [4], above 100 µM. The figures for the TGI in assay [5], in assay [6] and in assay [7] were above 100 µM, above 100 µM and above 41.9 µM, respectively.

`Cc1cc2c(-c3nc4ccccn4c3NC34CC5CC(CC(C5)C3)C4)c(O)c(O)cc2c(O)c1-c1c(C)cc2c(-c3nc4ccccn4c3NC34CC5CC(CC(C5)C3)C4)c(O)c(O)cc2c1O`: the GI50 in assay [9] is 0.794 µM; in assay [2], 0.671 µM; in [3], 0.552 µM; in assay [10], 0.466 µM; in assay [4] it was 0.728 µM; in assay [5], 0.152 µM. The GI50 in assay [6] is 0.105 µM; in [7], 0.0889 µM; in assay [8], 0.574 µM. Also, the TGI was above 25 µM in assay [9]; 2.98 µM in assay [2]; above 25 µM in assay [3]; above 25 µM in [10]; above 25 µM in [4]; 4.93 µM in assay [5]. Also, the TGI in assay [6] was 5.96 µM; in [7] it was 6.22 µM; in assay [8], above 25 µM.

Turning to `CC[C@H](C)[C@H](NC(=O)N[C@@H](C)c1ccccc1)C(=O)N(C)[C@H](C[C@@H](OC(C)=O)c1nc(C(=O)N[C@@H](Cc2ccccc2)C[C@H](C)C(=O)OC)cs1)C(C)C`, the GI50 in assay [9] is 52 µM; in [1], 37.2 µM; in assay [2], 20.2 µM; in [3] it was 3.27 µM; in assay [10], 25.4 µM; in assay [4], 38.5 µM. Further, the GI50 in [6] is 21.4 µM; in assay [7] it was 21.8 µM; in assay [8], above 100 µM. Also, the TGI in [9] is above 100 µM; in assay [1] it was above 100 µM; in [2], 56.6 µM; in assay [3] it was 13.3 µM; in assay [10], above 100 µM; in assay [4], above 100 µM. Further, the results for the TGI in [6], in assay [7] and in [8] were 74.9 µM, 68.5 µM and above 100 µM, respectively.

For the compound `N#CC1=C(N)NC(=S)C(C#N)C12Nc1ccccc1S2` (stereo not drawn), the GI50 in assay [9] is 14.4 µM; in assay [1] it was 11 µM; in assay [3], 17.2 µM; in assay [10], 15 µM; in [5] it was 48.2 µM; in assay [6] it was 21.7 µM. For the same compound, the GI50 in assay [7] is 18.5 µM; in assay [8], 30.5 µM. Besides, the TGI was 46.6 µM in assay [9]; 35.1 µM in [1]; 44.7 µM in assay [3]; 42.3 µM in assay [10]; above 100 µM in assay [5]; 49.1 µM in [6]. Moreover, the TGI in [7] came out at 41.7 µM; in [8], 84 µM.

Take `Cc1nnc(N=Nc2c(O)[nH]c3ccccc23)[nH]c1=O`: the TGI in [9], in assay [2], in [3], in assay [10], in [4] and in assay [5] was above 100 µM in each case. Besides, the TGI in [6], in assay [7] and in assay [8] was above 100 µM throughout.

Consider `Nn1nnc2ccccc21`, for which the TGI in assay [9], in [3], in assay [10], in [4], in [5] and in [6] was above 100 µM each time. Besides, the TGI in assay [7] and in [8] was above 100 µM throughout.

With `CC(=O)Oc1ccc2c(c1)O/C(=C\c1ccc(O)cc1)C2=O`, the TGI in [9], in assay [1], in assay [2], in assay [3], in assay [10] and in assay [4] was above 100 µM each time. Besides, the TGI in assay [5], in [6] and in assay [7] was above 100 µM in each case.
